Laboratory results reported in ChEMBL document CHEMBL3639112, “Modulators of calcium release-activated calcium channel and methods for treatment of non-small cell lung cancer” (2015).

Target: Calcium release-activated calcium channel protein 1 (Homo sapiens, UniProt Q96D31)
Experiment: Inhibition Assay: Inhibition of CRAC channels was determined following thapsigargin (Sigma, Cat # T9033) induced endoplasmic calcium release in Jurkat cells. (see Yasurio Yonetoky et. al Bio. & Med. Chem. 14 (2006) 4750-4760). Cells were centrifuged and resuspended in equal volumes f Ca2+ and Mg2+ free Hanks buffer and Fluo-8 NW dye (ABD Bioquest, Inc., Sunnyvale, Calif.) loading solution at 2x10^5 cells/100 ul/well in 96-well black plate. Plate is incubated at 37 C./5% CO2 […] followed by further […] at room temperature. Test compounds (DMSO stocks diluted in Ca2+ and Mg2+ free Hanks buffer) at desired concentrations were added to the wells and […]. Thapsigargin (1 uM final concentration) was added to the wells and incubated for 15 min to inhibit the Sarco-endoplasmic reticulum Ca2+ ATPase pump thereby depleting endoplasmic calcium and raising cytosolic calcium concentrations. Store-operated calcium entry was initiated by adding extracellular Ca2+.
Type: cell-based

Sequence of Calcium release-activated calcium channel protein 1 (Q96D31 whole entry): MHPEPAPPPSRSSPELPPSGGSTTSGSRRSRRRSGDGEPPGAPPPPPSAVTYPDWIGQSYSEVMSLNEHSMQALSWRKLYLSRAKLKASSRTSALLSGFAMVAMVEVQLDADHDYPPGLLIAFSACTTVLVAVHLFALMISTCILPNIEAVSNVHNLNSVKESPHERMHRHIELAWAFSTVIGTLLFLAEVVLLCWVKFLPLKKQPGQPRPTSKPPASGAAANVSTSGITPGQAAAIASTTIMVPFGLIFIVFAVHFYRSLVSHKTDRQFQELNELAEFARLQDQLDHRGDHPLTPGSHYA

Row | Structure (SMILES) | IC50 [nM]
1 | O=C(Cc1ccc2ncccc2c1)Nc1ccc(-n2nc(C3CC3)cc2C2CC2)cc1 | 147
2 | O=C(Nc1ccc(-n2nc(C(F)(F)F)cc2C2CC2)cc1)c1ccc2ncccc2c1 | 86.1
